Experimental data from US10294202B2, “Pyrrolidinones as herbicides” (FMC Corporation, priority 2013, dated 2019).

Legend:
Test in all cases: Test D pre-/postemergence herbicide test
[1] = system: oilseed rape; assay type: in vivo, Brassica napus; settings: for Plant response rating: Postemergence, Oilseed Rape, scale 0 to 100; for Plant response rating, Oilseed Rape: Preemergence, scale 0 to 100 (0 no effect, 100 complete control)
Procedure, shortened: (§1)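 Visual ratings from 0 (no effect) to 100 (complete control) were made against untreated controls 7 to 21 days after treatment. Application was both preemergence, on silt loam soil, and postemergence, to 1- to 4-leaf plants 2-18 cm tall; compounds were formulated in a non-phytotoxic surfactant-containing solvent.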

[2] = system: foxtail, green; assay type: in vivo, Setaria viridis; settings: for Plant response rating: Foxtail, Green, scale 0 to 100; for Plant response rating, Foxtail, Green: scale 0 to 100 (0 no effect, 100 complete control)
Excerpt: (§2) Seeds of plant species selected from bluegrass (annual bluegrass, Poa annua), blackgrass (Alopecurus myosuroides), canarygrass (littleseed canarygrass, Phalaris minor), chickweed (common chickweed, Stellaria media), galium (catchweed bedstraw, Galium aparine), bromegrass, downy (downy bromegrass, Bromus tectorum), field poppy (Papaver rhoeas), field violet (Viola arvensis), foxtail, green (green foxtail, Setaria viridis), deadnettle (henbit deadnettle, Lamium amplexicaule), ryegrass, Italian (Italian ryegrass, Lolium multiflorum), kochia (Kochia scoparia), lambsquarters (Chenopodium album), oilseed rape (Brassica napus), pigweed (Amaranthus retroflexus), chamomile (scentless chamomile, Matricaria inodora), Russian thistle (Salsola kali), speedwell (bird's-eye speedwell, Veronica persica), barley, spring (spring barley, Hordeum vulgare), wheat, spring (spring wheat, Triticum aestivum), buckwheat, wild (wild buckwheat, Polygonum convolvulus), mustard, wild (wild mustard, Sinapis arvensis), oat, wild (wild oat, Avena fatua), radish, wild (wild radish, Raphanus raphanistrum), […]), barley, winter (winter barley, Hordeum vulgare), and wheat, winter (winter wheat, Triticum aestivum) were planted into a silt loam soil and treated preemergence with test chemicals formulated in a non-phytotoxic solvent mixture which included a surfactant. At the same time, these species were planted in pots containing Redi-Earth® planting medium (Scotts Company, 14111 Scottslawn Road, Marysville, Ohio 43041) comprising spaghnum peat moss, vermiculite, wetting agent and starter nutrients and treated with postemergence applications of the test chemicals formulated in the same manner. Plants ranged in height from 2 to 18 cm (1- to 4-leaf stage). Treated plants and controls were maintained in a controlled growth environment for 7 to 21 days after which time all species were compared to controls and visually evaluated. Plant response ratings, summarized in Table D, are based on a scale of 0 to 100 where 0 is no effect and 100 is complete control. A dash (-) response means no test result.

[3] = system: barley, winter; assay type: in vivo, Hordeum vulgare; settings: for Plant response rating: Barley, Winter, scale 0 to 100; for Plant response rating, Barley, Winter: scale 0 to 100 (0 no effect, 100 complete control)
Excerpt: as §2

[4] = system: barley, spring; assay type: in vivo, Hordeum vulgare; settings: for Plant response rating: Barley, Spring, scale 0 to 100; for Plant response rating, Barley, Spring: scale 0 to 100 (0 no effect, 100 complete control)
Excerpt: as §2

[5] = system: speedwell; assay type: in vivo, Veronica persica; settings: for Plant response rating: Postemergence, Speedwell, scale 0 to 100; for Plant response rating, Speedwell: Preemergence, scale 0 to 100 (0 no effect, 100 complete control)
Excerpt: as §2

[6] = system: deadnettle; assay type: in vivo, Lamium amplexicaule; settings: for Plant response rating: Deadnettle, scale 0 to 100; for Plant response rating, Deadnettle: scale 0 to 100 (0 no effect, 100 complete control)
Procedure, shortened: as §1

[7] = system: pigweed; assay type: in vivo, Amaranthus retroflexus; settings: for Plant response rating: Postemergence, Pigweed, scale 0 to 100; for Plant response rating, Pigweed: Preemergence, scale 0 to 100 (0 no effect, 100 complete control)
Procedure, shortened: as §1

## O=C1NCC(c2cc(F)c(F)cc2F)C1C(=O)Nc1cccc(F)c1F (stereo not drawn) [Compound 50]
[1]; 16 g ai/ha
  Plant response rating: 5
  Plant response rating, Oilseed Rape: 0
[1]; 31 g ai/ha
  Plant response rating: 5
  Plant response rating, Oilseed Rape: 0
[1]; 62 g ai/ha
  Plant response rating: 5
  Plant response rating, Oilseed Rape: 0
[1]; 125 g ai/ha
  Plant response rating: 5
  Plant response rating, Oilseed Rape: 0
[2]; Postemergence, 16 g ai/ha
  Plant response rating: 0
[2]; Postemergence, 31 g ai/ha
  Plant response rating: 0
[2]; Postemergence, 62 g ai/ha
  Plant response rating: 0
[2]; Postemergence, 125 g ai/ha
  Plant response rating: 0
[2]; Preemergence, 62 g ai/ha
  Plant response rating, Foxtail, Green: 50
[2]; Preemergence, 16 g ai/ha
  Plant response rating, Foxtail, Green: 0
[2]; Preemergence, 31 g ai/ha
  Plant response rating, Foxtail, Green: 0
[2]; Preemergence, 125 g ai/ha
  Plant response rating: 40
[3]; Postemergence, 16 g ai/ha
  Plant response rating: 0
[3]; Postemergence, 31 g ai/ha
  Plant response rating: 0
[3]; Postemergence, 62 g ai/ha
  Plant response rating: 0
[3]; Postemergence, 125 g ai/ha
  Plant response rating: 0
[3]; Preemergence, 62 g ai/ha
  Plant response rating, Barley, Winter: 0
[3]; Preemergence, 16 g ai/ha
  Plant response rating, Barley, Winter: 0
[3]; Preemergence, 31 g ai/ha
  Plant response rating, Barley, Winter: 0
[3]; Preemergence, 125 g ai/ha
  Plant response rating: 0
[4]; Postemergence, 16 g ai/ha
  Plant response rating: 0
[4]; Postemergence, 31 g ai/ha
  Plant response rating: 0
[4]; Postemergence, 62 g ai/ha
  Plant response rating: 0
[4]; Postemergence, 125 g ai/ha
  Plant response rating: 0
[4]; Preemergence, 62 g ai/ha
  Plant response rating, Barley, Spring: 0
[4]; Preemergence, 16 g ai/ha
  Plant response rating, Barley, Spring: 0
[4]; Preemergence, 31 g ai/ha
  Plant response rating, Barley, Spring: 0
[4]; Preemergence, 125 g ai/ha
  Plant response rating: 0
[5]; 16 g ai/ha
  Plant response rating: 0
  Plant response rating, Speedwell: 0
[5]; 62 g ai/ha
  Plant response rating, Speedwell: 0
[5]; 125 g ai/ha
  Plant response rating, Speedwell: 0
[5]; 31 g ai/ha
  Plant response rating, Speedwell: 0
[6]; Postemergence, 16 g ai/ha
  Plant response rating: 0
[6]; Postemergence, 31 g ai/ha
  Plant response rating: 0
[6]; Postemergence, 62 g ai/ha
  Plant response rating: 0
[6]; Postemergence, 125 g ai/ha
  Plant response rating: 0
[6]; Preemergence, 62 g ai/ha
  Plant response rating, Deadnettle: 100
[6]; Preemergence, 16 g ai/ha
  Plant response rating, Deadnettle: 50
[6]; Preemergence, 31 g ai/ha
  Plant response rating, Deadnettle: 50
[6]; Preemergence, 125 g ai/ha
  Plant response rating: 100
[7]; 16 g ai/ha
  Plant response rating: 5
  Plant response rating, Pigweed: 10
[7]; 31 g ai/ha
  Plant response rating: 0
  Plant response rating, Pigweed: 10
[7]; 62 g ai/ha
  Plant response rating: 0
  Plant response rating, Pigweed: 25
[7]; 125 g ai/ha
  Plant response rating: 10
  Plant response rating, Pigweed: 5

## O=C1NCC(c2ccc(Cl)c(F)c2)C1C(=O)Nc1cccc(F)c1F (stereo not drawn) [Compound 52]
[1]; 16 g ai/ha
  Plant response rating: 0
  Plant response rating, Oilseed Rape: 0
[1]; 31 g ai/ha
  Plant response rating: 0
  Plant response rating, Oilseed Rape: 0
[1]; 62 g ai/ha
  Plant response rating: 0
  Plant response rating, Oilseed Rape: 0
[1]; 125 g ai/ha
  Plant response rating: 10
  Plant response rating, Oilseed Rape: 10
[1]; 250 g ai/ha
  Plant response rating: 25
  Plant response rating, Oilseed Rape: 10
[2]; Postemergence, 16 g ai/ha
  Plant response rating: 0
[2]; Postemergence, 31 g ai/ha
  Plant response rating: 0
[2]; Postemergence, 62 g ai/ha
  Plant response rating: 0
[2]; Postemergence, 125 g ai/ha
  Plant response rating: 0
[2]; Postemergence, 250 g ai/ha
  Plant response rating: 0
[2]; Preemergence, 62 g ai/ha
  Plant response rating, Foxtail, Green: 0
[2]; Preemergence, 16 g ai/ha
  Plant response rating, Foxtail, Green: 0
[2]; Preemergence, 31 g ai/ha
  Plant response rating, Foxtail, Green: 0
[2]; Preemergence, 125 g ai/ha
  Plant response rating: 0
[2]; Preemergence, 250 g ai/ha
  Plant response rating: 60
[3]; Postemergence, 16 g ai/ha
  Plant response rating: 0
[3]; Postemergence, 31 g ai/ha
  Plant response rating: 0
[3]; Postemergence, 62 g ai/ha
  Plant response rating: 0
[3]; Postemergence, 125 g ai/ha
  Plant response rating: 0
[3]; Postemergence, 250 g ai/ha
  Plant response rating: 0
[3]; Preemergence, 62 g ai/ha
  Plant response rating, Barley, Winter: 0
[3]; Preemergence, 16 g ai/ha
  Plant response rating, Barley, Winter: 0
[3]; Preemergence, 31 g ai/ha
  Plant response rating, Barley, Winter: 0
[3]; Preemergence, 125 g ai/ha
  Plant response rating: 0
[3]; Preemergence, 250 g ai/ha
  Plant response rating: 25
[4]; Postemergence, 16 g ai/ha
  Plant response rating: 0
[4]; Postemergence, 31 g ai/ha
  Plant response rating: 0
[4]; Postemergence, 62 g ai/ha
  Plant response rating: 0
[4]; Postemergence, 125 g ai/ha
  Plant response rating: 0
[4]; Postemergence, 250 g ai/ha
  Plant response rating: 0
[4]; Preemergence, 62 g ai/ha
  Plant response rating, Barley, Spring: 0
[4]; Preemergence, 16 g ai/ha
  Plant response rating, Barley, Spring: 0
[4]; Preemergence, 31 g ai/ha
  Plant response rating, Barley, Spring: 0
[4]; Preemergence, 125 g ai/ha
  Plant response rating: 0
[4]; Preemergence, 250 g ai/ha
  Plant response rating: 5
[5]; 16 g ai/ha
  Plant response rating: 20
  Plant response rating, Speedwell: 0
[5]; 31 g ai/ha
  Plant response rating: 20
  Plant response rating, Speedwell: 90
[5]; 62 g ai/ha
  Plant response rating: 25
  Plant response rating, Speedwell: 90
[5]; 125 g ai/ha
  Plant response rating: 40
  Plant response rating, Speedwell: 100
[5]; 250 g ai/ha
  Plant response rating: 70
  Plant response rating, Speedwell: 100
[6]; Postemergence, 16 g ai/ha
  Plant response rating: 0
[6]; Postemergence, 31 g ai/ha
  Plant response rating: 0
[6]; Postemergence, 62 g ai/ha
  Plant response rating: 0
[6]; Postemergence, 125 g ai/ha
  Plant response rating: 20
[6]; Postemergence, 250 g ai/ha
  Plant response rating: 25
[6]; Preemergence, 62 g ai/ha
  Plant response rating, Deadnettle: 0
[6]; Preemergence, 16 g ai/ha
  Plant response rating, Deadnettle: 0
[6]; Preemergence, 31 g ai/ha
  Plant response rating, Deadnettle: 0
[6]; Preemergence, 125 g ai/ha
  Plant response rating: 0
[6]; Preemergence, 250 g ai/ha
  Plant response rating: 30
[7]; 16 g ai/ha
  Plant response rating: 0
  Plant response rating, Pigweed: 0
[7]; 31 g ai/ha
  Plant response rating: 0
  Plant response rating, Pigweed: 10
[7]; 62 g ai/ha
  Plant response rating: 0
  Plant response rating, Pigweed: 10
[7]; 125 g ai/ha
  Plant response rating: 30
  Plant response rating, Pigweed: 10
[7]; 250 g ai/ha
  Plant response rating: 40
  Plant response rating, Pigweed: 15
